Experimental data taken from patent publication US20110301222A1, “COMBINATION THERAPY FOR THE TREATMENT OF CANCER” (Isis Pharmaceuticals, Inc., priority 2008, published 2011).
Marks after values point to notes of the source that are not given here. In the oligonucleotide strings, read from the 5' end, every base follows the letter of its sugar. An asterisk marks phosphorothioate; unmarked linkages are phosphodiester. Other units and linkages are bracketed, terminal groups are in braces. A string of capitals states the bases alone. e = 2'-O-(2-methoxyethyl) (MOE); [5mC] = 5-methylcytosine; d = 2'-deoxy (DNA)

What was measured:
Assay type in all cases: in vivo, athymic nude mice
[1] = tested on: MDA-231 Breast Cancer Xenograft; assay: MDA-231 breast cancer xenograft tumor volume in mice; details: for Percent Reduction in Mean Tumor Volumes (observed): Breast MDA-231, Day 33, vs. vehicle control, negative = reduction, + = increase, Taxotere 2.5 mg/kg; for Mean Tumor Volume: ASO 50 mg/kg i.v., Taxotere 2.5 mg/kg IP once weekly, from 8 days after first ASO dose
Description: (§1) To determine whether the eIF-4E ASO complements or enhances the activity of docetaxel, the effect of the combined use of the eIF-4E ASO and docetaxel on tumor volume in 3 human xenograft cancer models is studied as follows.
(§2) Xenograft studies are carried out as described in Graff et al. (2005) Cancer Res. 65:7462-7469. Five million human cancer cells representing non-small cell lung cancer (line A549; ATCC, accession no. CCL-185), hormone refractory prostate cancer (line PC-3; ATCC, accession no. CRL-1435), and ER-/PR-HER2-breast cancer (line MDA-231; ATCC, accession no. HTB-26) are injected subcutaneously in the flank of 6-8 week old, athymic nude mice (Harlan, Indianapolis, Ind.) in a 1:1 mixture of serum-free growth medium and matrigel (Becton Dickinson, Bedford, Mass., catalogue # 354234). Mice are monitored daily for palpable tumors.
(§3) When tumor volumes reach ˜50-100 mm^3, mice are randomized to treatment groups (Graff et al. (2007) J. Clin. Invest. 117:2638-48). Body weight is monitored each time tumors are measured.
(§4) For treatment, all mice are injected intravenously with the eIF-4E ASO in saline in a total volume of 200 μl. The ASO consists of the nucleotide sequence 5′-[…]-3′ (SEQ ID NO:1), in which every internucleoside linkage is a phosphorothioate linkage, nucleotides 1-5 and 16-20 reading from the 5′ end to the 3′ end each comprise a 2′-O-(2-methoxyethyl) sugar, nucleotides 6-15 are 2′-deoxynucleotides, every cytosine residue is a 5-methylcytosine, and which is in the form of a sodium salt. The mice are first injected with an initial loading dose of 50 mg/kg ASO for 3 consecutive days, followed by 50 mg/kg thrice weekly thereafter.
(§5) Taxotere® (docetaxel) dosing begins 8 days after the first ASO dose to allow time for reduction of eIF-4E protein expression. Mice are dosed with 2.5 or 10 mg/kg Taxotere® (Sanofi-Aventis) intraperitoneally (IP) in 1% ethanol in 5% dextrose water in a volume of 200 μl once weekly for 3 weeks.
(§6) Tumor volumes are calculated measuring the largest (L) and smallest (W) diameters with a caliper. The formula is: Volume=L×W^2×0.534. Tumor volume data are transformed to a log scale to equalize variance across time and treatment groups. The log volume data are analyzed with a two-way repeated measures analysis of variance by time and treatment using SAS PROC MIXED software (SAS Institute Inc, Cary, N.C.) using the spatial power covariance structure. Treatment groups are compared to the control group at each time point and overall. The data may be plotted as means and standard errors for each treatment group versus time. Additivity is assessed in two ways: (1) as an overall interaction effect between the ASO and Taxotere® in the repeated measures analysis, and (2) by using the Bliss Independence method on the final day of the study (C. I. Bliss (1939) Ann. Appl. Biol. 26:585-615). These two methods yield the same results.
(§7) The observed percent reductions in mean tumor volume at the conclusion of each study resulting from the various treatments are shown in Table 4. These are calculated as: […]
(§8) The “Expected if Additive” percent reductions in mean tumor volume shown in Table 4 are calculated using the Bliss Independence definition of additivity, as follows: […]

[2] = tested on: A549 Non-Small Cell Lung Cancer Xenograft; assay: A549 non-small cell lung cancer xenograft tumor volume in mice; details: for Mean Tumor Volume: ASO 50 mg/kg i.v., docetaxel 10 mg/kg IP once weekly, from 8 days after first ASO dose; for Percent Reduction in Mean Tumor Volumes (observed): NSCLC A549, Day 50, vs. vehicle control, negative = reduction, docetaxel 10 mg/kg
Description: as §1, §2, §3, §4, §5, §6, §7, §8

[3] = tested on: PC-3 Hormone-Refractory Prostate Cancer Xenograft; assay: PC-3 hormone-refractory prostate cancer xenograft tumor volume in mice; details: for Mean Tumor Volume: ASO 50 mg/kg i.v., Taxotere 10 mg/kg IP once weekly, from 8 days after first ASO dose; for Percent Reduction in Mean Tumor Volumes (observed): Prostate PC3, Day 35, vs. vehicle control, negative = reduction, Taxotere 10 mg/kg
Description: as §1, §2, §3, §4, §5, §6, §7, §8

Row | Molecule | Percent Reduction in Mean Tumor Volumes (observed) [1] | Mean Tumor Volume ([1]; Day 5) [mm^3] | Mean Tumor Volume ([1]; Day 8) [mm^3] | Mean Tumor Volume ([1]; Day 12) [mm^3] | Mean Tumor Volume ([1]; Day 15) [mm^3] | Mean Tumor Volume ([1]; Day 19) [mm^3] | Mean Tumor Volume ([1]; Day 22) [mm^3] | Mean Tumor Volume ([1]; Day 26) [mm^3] | Mean Tumor Volume ([1]; Day 29) [mm^3] | Mean Tumor Volume ([1]; Day 33) [mm^3] | Mean Tumor Volume ([2]; Day 7) [mm^3] | Mean Tumor Volume ([2]; Day 10) [mm^3] | Mean Tumor Volume ([2]; Day 15) [mm^3] | Mean Tumor Volume ([2]; Day 18) [mm^3] | Mean Tumor Volume ([2]; Day 22) [mm^3] | Mean Tumor Volume ([2]; Day 25) [mm^3] | Mean Tumor Volume ([2]; Day 29) [mm^3] | Mean Tumor Volume ([2]; Day 32) [mm^3] | Mean Tumor Volume ([2]; Day 36) [mm^3] | Mean Tumor Volume ([2]; Day 39) [mm^3] | also measured
1 | CC(=O)O[C@@]12CO[C@@H]1C[C@H](O)[C@@]1(C)C(=O)[C@H](O)C3=C(C)[C@@H](OC(=O)[C@H](O)[C@@H](NC(=O)OC(C)(C)C)c4ccccc4)C[C@@](O)([C@@H](OC(=O)c4ccccc4)[C@H]21)C3(C)C [Docetaxel, (2R,3S)—N-carboxy-3-phenylisoserine,N-tert-butyl ester, 13-ester with 5β-20-epoxy-1,2α,4,7β,10β,13α-hexahydroxytax-11-en-9-one 4-acetate 2-benzoate, trihydrate, reference compound] | −1.4% | 78.7 | 130.1 | 180.9 | 221.0 | 270.3 | 333.9 | 384.9 | 450.4 | 529.6 | 49.7 | 56.7 | 114.8 | 70.0 | 135.8 | 170.1 | 257.0 | 261.5 | 290.0 | 282.3 | Mean Tumor Volume ([2]; Day 43): 342.6 mm^3; Mean Tumor Volume ([2]; Day 46): 310.2 mm^3; Mean Tumor Volume ([2]; Day 50): 343.8 mm^3; Percent Reduction in Mean Tumor Volumes (observed) [2]: −29.6%; Mean Tumor Volume ([3]; Day 7): 46.3 mm^3; Mean Tumor Volume ([3]; Day 12): 106.8 mm^3; Mean Tumor Volume ([3]; Day 15): 134.7 mm^3; Mean Tumor Volume ([3]; Day 19): 164.8 mm^3; Mean Tumor Volume ([3]; Day 22): 171.7 mm^3; Mean Tumor Volume ([3]; Day 27): 157.4 mm^3; Mean Tumor Volume ([3]; Day 29): 162.7 mm^3; Mean Tumor Volume ([3]; Day 33): 161.6 mm^3; Mean Tumor Volume ([3]; Day 35): 167.0 mm^3; Percent Reduction in Mean Tumor Volumes (observed) [3]: −69.5%*
2 | d(P-thio) ([2′-O-(2-methoxyethyl)] m5rU-([2′-O-(2-methoxyethyl)] rG-([2′-O-(2-methoxyethyl)] m5rU-([2′-O-(2-methoxyethyl)] m5rC-([2′-O-(2-methoxyethyl)] rA-T-A-T-T-m5C-m5C-T-G-G-A-([2′-O-(2-methoxyethyl)] m5rU-([2′-O-(2-methoxyethyl)] m5rC-([2′-O-(2-methoxyethyl)] m5rC-([2′-O-(2-methoxyethyl)] m5rU-([2′-O-(2-methoxyethyl)] m5rU) (antisense eT*eG*eT*e[5mC]*eA*dT*dA*dT*dT*d[5mC]*d[5mC]*dT*dG*dG*dA*eT*e[5mC]*e[5mC]*eT*eT) [eIF-4E ASO] | +16.6% | 78.9 | 129.4 | 166.6 | 221.0 | 268.2 | 356.3 | 435.9 | 574.1 | 626.2 | 52.7 | 69.4 | 113.7 | 79.1 | 139.5 | 149.0 | 220.1 | 249.5 | 256.6 | 239.1 | Effect on mean tumor volume (in words) ([1]; breast cancer model, ASO alone): non-statistically significant increase in mean tumor volume; Mean Tumor Volume ([2]; Day 43): 313.2 mm^3; Mean Tumor Volume ([2]; Day 46): 292.3 mm^3; Mean Tumor Volume ([2]; Day 50): 404.0 mm^3; Percent Reduction in Mean Tumor Volumes (observed) [2]: −17.3%; Mean Tumor Volume ([3]; Day 7): 49.8 mm^3; Mean Tumor Volume ([3]; Day 12): 88.3 mm^3; Mean Tumor Volume ([3]; Day 15): 130.3 mm^3; Mean Tumor Volume ([3]; Day 19): 159.0 mm^3; Mean Tumor Volume ([3]; Day 22): 218.8 mm^3; Mean Tumor Volume ([3]; Day 27): 294.5 mm^3; Mean Tumor Volume ([3]; Day 29): 343.9 mm^3; Mean Tumor Volume ([3]; Day 33): 424.0 mm^3; Mean Tumor Volume ([3]; Day 35): 491.2 mm^3; Percent Reduction in Mean Tumor Volumes (observed) [3]: −10.2%
